Measurements reported in patent publication US10405547B2, “Substituted cyclic amides as herbicides” (FMC Corporation, priority 2015, dated 2019).

Experiments:
Type in all cases: in vivo
[1] = test system: barnyardgrass (Echinochloa crus-galli); assay: Test A preemergence, barnyardgrass; conditions: 0 to 100 scale (0 no effect, 100 complete control)
Method in brief: (§1)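 Injury scores (0 no effect, 100 complete control) were assigned by visually comparing treated with untreated plants after about 10 days of greenhouse growth. Seeds for soil treatment were sown into a loam and sand blend, while plants for foliar treatment grew in pots of that same blend.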

kochia (Kochia scoparia) [2] = assay: Test A preemergence, kochia; conditions: 0 to 100 scale (0 no effect, 100 complete control)
Method in brief: as §1

[3] = test system: ragweed (common ragweed, Ambrosia elatior); assay: Test A preemergence, ragweed; conditions: 0 to 100 scale (0 no effect, 100 complete control)
Method in brief: as §1

[4] = test system: ryegrass, Italian (Lolium multiflorum); assay: Test A preemergence, Italian ryegrass; conditions: 0 to 100 scale (0 no effect, 100 complete control)
Method in brief: as §1

[5] = test system: foxtail, giant (Setaria faberii); assay: Test A preemergence, giant foxtail; conditions: 0 to 100 scale (0 no effect, 100 complete control)
Method in brief: as §1

[6] = test system: pigweed (Amaranthus retroflexus); assay: Test A preemergence, pigweed; conditions: 0 to 100 scale (0 no effect, 100 complete control)
Method in brief: as §1

[7] = test system: barnyardgrass (Echinochloa crus-galli); assay: Test A postemergence, barnyardgrass; conditions: visual injury, 0 to 100 scale (0 no effect, 100 complete control), approximately 10 days
Method in brief: as §1

kochia (Kochia scoparia) [8] = assay: Test A postemergence, kochia; conditions: visual injury, 0 to 100 scale (0 no effect, 100 complete control), approximately 10 days
Method in brief: as §1

[9] = test system: ragweed (common ragweed, Ambrosia elatior); assay: Test A postemergence, ragweed; conditions: visual injury, 0 to 100 scale (0 no effect, 100 complete control), approximately 10 days
Method in brief: as §1

[10] = test system: ryegrass, Italian (Lolium multiflorum); assay: Test A postemergence, Italian ryegrass; conditions: visual injury, 0 to 100 scale (0 no effect, 100 complete control), approximately 10 days
Method in brief: as §1

[11] = test system: foxtail, giant (Setaria faberii); assay: Test A postemergence, giant foxtail; conditions: visual injury, 0 to 100 scale (0 no effect, 100 complete control), approximately 10 days
Method in brief: as §1

[12] = test system: pigweed (Amaranthus retroflexus); assay: Test A postemergence, pigweed; conditions: visual injury, 0 to 100 scale (0 no effect, 100 complete control), approximately 10 days
Method in brief: as §1

[13] = test system: blackgrass (Alopecurus myosuroides); assay: Test A postemergence, blackgrass; conditions: visual injury, 0 to 100 scale (0 no effect, 100 complete control), approximately 10 days
Method in brief: as §1

[14] = test system: galium (catchweed bedstraw, Galium aparine); assay: Test A postemergence, galium; conditions: visual injury, 0 to 100 scale (0 no effect, 100 complete control), approximately 10 days
Method in brief: as §1

[15] = test system: wheat (Triticum aestivum); assay: Test A postemergence, wheat; conditions: visual injury, 0 to 100 scale (0 no effect, 100 complete control), approximately 10 days
Method in brief: as §1

corn (Zea mays) = assay: Test A postemergence, corn; conditions: visual injury, 0 to 100 scale (0 no effect, 100 complete control), approximately 10 days
Method in brief: as §1

rice (Oryza sativa) = assay: Test B flooded paddy test, rice; conditions: 250 g ai/ha, applied to paddy water, visual rating after 13 to 15 days, scale 0 (no effect) to 100 (complete control)
Method in brief: (§2)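 In-water treatment: compound dosed into 3 cm flood over soil, water level unchanged throughout. Controls run alongside; visual assessment at day 13–15.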

[16] = test system: sedge, umbrella (small-flower umbrella sedge, Cyperus difformis); assay: Test B flooded paddy test, umbrella sedge; conditions: 250 g ai/ha, applied to paddy water, visual rating after 13 to 15 days, scale 0 (no effect) to 100 (complete control)
Method in brief: as §2

[17] = test system: ducksalad (Heteranthera limosa); assay: Test B flooded paddy test, ducksalad; conditions: 250 g ai/ha, applied to paddy water, visual rating after 13 to 15 days, scale 0 (no effect) to 100 (complete control)
Method in brief: as §2

[18] = test system: barnyardgrass (Echinochloa crus-galli); assay: Test B flooded paddy test, barnyardgrass; conditions: 250 g ai/ha, applied to paddy water, visual rating after 13 to 15 days, scale 0 (no effect) to 100 (complete control)
Method in brief: as §2

SMILES | Plant response rating, Barnyardgrass ([1]; 125 g ai/ha) | Plant response rating, Barnyardgrass ([1]; 500 g ai/ha) | Plant response rating, Kochia (kochia (Kochia scoparia) [2]; 125 g ai/ha) | Plant response rating, Kochia (kochia (Kochia scoparia) [2]; 500 g ai/ha) | Plant response rating, Ragweed ([3]; 125 g ai/ha) | Plant response rating, Ragweed ([3]; 500 g ai/ha) | Plant response rating, Ryegrass, Italian ([4]; 125 g ai/ha) | Plant response rating, Ryegrass, Italian ([4]; 500 g ai/ha) | Plant response rating, Foxtail, Giant ([5]; 125 g ai/ha) | Plant response rating, Foxtail, Giant ([5]; 500 g ai/ha) | Plant response rating, Pigweed ([6]; 125 g ai/ha) | Plant response rating, Pigweed ([6]; 500 g ai/ha) | Plant response rating, Barnyardgrass ([7]; 125 g ai/ha) | Plant response rating, Barnyardgrass ([7]; 500 g ai/ha) | Plant response rating, Kochia (kochia (Kochia scoparia) [8]; 125 g ai/ha) | Plant response rating, Kochia (kochia (Kochia scoparia) [8]; 500 g ai/ha) | Plant response rating, Ragweed ([9]; 125 g ai/ha) | Plant response rating, Ragweed ([9]; 500 g ai/ha) | Plant response rating, Ryegrass, Italian ([10]; 125 g ai/ha) | Plant response rating, Ryegrass, Italian ([10]; 500 g ai/ha) | other results
O=C1NCC(c2cccc(OCC3OCCO3)c2)C1C(=O)Nc1ccccc1F (stereo not drawn) [Compound 8] | 50 | 80 | 0 | 0 | 0 | 0 | 0 | 0 | 80 | 90 | 0 | 0 | 0 | 70 | 0 | 0 | 0 | 10 | 0 | 0 | Plant response rating, Foxtail, Giant ([11]; 125 g ai/ha): 0; Plant response rating, Foxtail, Giant ([11]; 500 g ai/ha): 70; Plant response rating, Pigweed ([12]; 125 g ai/ha): 0; Plant response rating, Pigweed ([12]; 500 g ai/ha): 0; Plant response rating, Blackgrass ([13]; 125 g ai/ha): 0; Plant response rating, Blackgrass ([13]; 500 g ai/ha): 20; Plant response rating, Galium ([14]; 125 g ai/ha): 0; Plant response rating, Galium ([14]; 500 g ai/ha): 0; Plant response rating, Wheat ([15]; 125 g ai/ha): 0; Plant response rating, Wheat ([15]; 500 g ai/ha): 0; Plant response rating, Corn (corn (Zea mays); 125 g ai/ha): 0; Plant response rating, Corn (corn (Zea mays); 500 g ai/ha): 20; Plant response rating, Rice (Flood) (rice (Oryza sativa)): 0; Plant response rating, Sedge, Umbrella (Flood) [16]: 0; Plant response rating, Ducksalad (Flood) [17]: 35; Plant response rating, Barnyardgrass (Flood) [18]: 0
O=C1NCC(c2cccc(Oc3ccc(C(F)(F)F)cn3)c2)C1C(=O)Nc1cccc(F)c1F (single isomer, unassigned) [Compound 47] | 50 | 80 | 0 | 0 | 0 | 60 | 0 | 70 | 90 | 90 | 0 | 50 | 70 | 90 | 0 | 60 | 0 | 0 | 0 | 30 | Plant response rating, Foxtail, Giant ([11]; 125 g ai/ha): 60; Plant response rating, Foxtail, Giant ([11]; 500 g ai/ha): 80; Plant response rating, Pigweed ([12]; 125 g ai/ha): 60; Plant response rating, Pigweed ([12]; 500 g ai/ha): 70; Plant response rating, Blackgrass ([13]; 125 g ai/ha): 0; Plant response rating, Blackgrass ([13]; 500 g ai/ha): 20; Plant response rating, Galium ([14]; 125 g ai/ha): 60; Plant response rating, Galium ([14]; 500 g ai/ha): 70; Plant response rating, Wheat ([15]; 125 g ai/ha): 0; Plant response rating, Wheat ([15]; 500 g ai/ha): 30; Plant response rating, Corn (corn (Zea mays); 125 g ai/ha): 20; Plant response rating, Corn (corn (Zea mays); 500 g ai/ha): 80; Plant response rating, Rice (Flood) (rice (Oryza sativa)): 0; Plant response rating, Sedge, Umbrella (Flood) [16]: 0; Plant response rating, Ducksalad (Flood) [17]: 0; Plant response rating, Barnyardgrass (Flood) [18]: 0
CN1CC(c2cccc(Oc3ncc(F)cn3)c2)C(C(=O)Nc2cccc(F)c2F)C1=O (single isomer, unassigned) [Compound 38] | 90 | 100 | 30 | 70 | 40 | 80 | 80 | 100 | 100 | 100 | 80 | 100 | 100 | 100 | 30 | 60 | 20 | 80 | 70 | 80 | Plant response rating, Foxtail, Giant ([11]; 125 g ai/ha): 90; Plant response rating, Foxtail, Giant ([11]; 500 g ai/ha): 90; Plant response rating, Pigweed ([12]; 125 g ai/ha): 50; Plant response rating, Pigweed ([12]; 500 g ai/ha): 70; Plant response rating, Blackgrass ([13]; 125 g ai/ha): 70; Plant response rating, Blackgrass ([13]; 500 g ai/ha): 70; Plant response rating, Galium ([14]; 125 g ai/ha): 50; Plant response rating, Galium ([14]; 500 g ai/ha): 70; Plant response rating, Wheat ([15]; 125 g ai/ha): 50; Plant response rating, Wheat ([15]; 500 g ai/ha): 70; Plant response rating, Corn (corn (Zea mays); 125 g ai/ha): 90; Plant response rating, Corn (corn (Zea mays); 500 g ai/ha): 100; Plant response rating, Rice (Flood) (rice (Oryza sativa)): 0; Plant response rating, Sedge, Umbrella (Flood) [16]: 0; Plant response rating, Ducksalad (Flood) [17]: 80; Plant response rating, Barnyardgrass (Flood) [18]: 60
CN1CC(c2cccc(Oc3ccc(C(F)(F)F)cn3)c2)C(C(=O)Nc2cccc(F)c2F)C1=O (single isomer, unassigned) [Compound 44] | 80 | 80 | 0 | 0 | 0 | 60 | 30 | 90 | 90 | 90 | 30 | 80 | 90 | 90 | 30 | 60 | 0 | 0 | 0 | 30 | Plant response rating, Foxtail, Giant ([11]; 125 g ai/ha): 70; Plant response rating, Foxtail, Giant ([11]; 500 g ai/ha): 80; Plant response rating, Pigweed ([12]; 125 g ai/ha): 50; Plant response rating, Pigweed ([12]; 500 g ai/ha): 80; Plant response rating, Blackgrass ([13]; 125 g ai/ha): 30; Plant response rating, Blackgrass ([13]; 500 g ai/ha): 50; Plant response rating, Galium ([14]; 125 g ai/ha): 70; Plant response rating, Galium ([14]; 500 g ai/ha): 80; Plant response rating, Wheat ([15]; 125 g ai/ha): 0; Plant response rating, Wheat ([15]; 500 g ai/ha): 50; Plant response rating, Corn (corn (Zea mays); 125 g ai/ha): 40; Plant response rating, Corn (corn (Zea mays); 500 g ai/ha): 80; Plant response rating, Rice (Flood) (rice (Oryza sativa)): 0; Plant response rating, Sedge, Umbrella (Flood) [16]: 0; Plant response rating, Ducksalad (Flood) [17]: 90; Plant response rating, Barnyardgrass (Flood) [18]: 40
